Assays:
[1] = for viscosity / mass density: 101.33 kPa, Liquid; for viscosity: Cone and plate viscometry; for mass density: Vibrating tube method; for surface tension liquid-gas: Pendant drop shape
[2] = refractive index (Na D-line) (dimensionless); settings: 101.33 kPa, Liquid, Standard Abbe refractometry

CCCC[N+](C)(CCCC)CCCC.O=S(=O)([N-]S(=O)(=O)C(F)(F)F)C(F)(F)F [tributylmethylammonium bis((trifluoromethyl)sulfonyl)imide]
Settings	mass density, [1] [kg/m3]	refractive index, [2]	surface tension liquid-gas, [1] [mN/m]	viscosity, [1] [mPa·s]
283.15 K	1276	1.4308	–	2049.8
288.15 K	1271.7	1.42933	–	1264
293.15 K	1267.3	1.42787	–	819.2
293.3 K	–	–	30.8	–
298.15 K	1262.8	1.42643	–	538.9
298.2 K	–	–	30.6	–
303.15 K	1258.4	1.42491	–	369.3
303.2 K	–	–	30.2	–
308.15 K	1254.1	1.42338	–	260.4
313.15 K	1249.9	1.42194	–	189.5
313.2 K	–	–	29.7	–
318.15 K	1245.8	1.42047	–	139.6
323.15 K	1241.7	1.41902	–	105.6
323.2 K	–	–	29.1	–
328.15 K	1237.6	1.41758	–	81.5
333.15 K	1233.6	1.41613	–	64.1
338.15 K	1229.5	1.41468	–	51.1
343.15 K	1225.5	1.41324	–	41.4
348.15 K	1221.5	1.4118	–	34
353.15 K	1217.5	1.4104	–	28.3

CCCC[N+](C)(C)C.O=S(=O)([N-]S(=O)(=O)C(F)(F)F)C(F)(F)F [butyltrimethylammonium bis(trifluoromethylsulfonyl)imide]
Settings	mass density, [1] [kg/m3]	refractive index, [2]	surface tension liquid-gas, [1] [mN/m]	viscosity, [1] [mPa·s]
283.15 K	1407.8	1.4122	–	254.2
288.15 K	1403.2	1.41083	–	184.6
293.15 K	1398.7	1.40945	–	137.7
293.2 K	–	–	33.4	–
298.15 K	1394.2	1.40818	–	105.2
298.2 K	–	–	33.2	–
303.15 K	1389.8	1.40676	–	82
303.2 K	–	–	33	–
308.15 K	1385.4	1.40538	–	65.2
313.1 K	–	–	32.5	–
313.15 K	1381	1.40405	–	52.7
318.15 K	1376.6	1.40273	–	43.2
323.1 K	–	–	32	–
323.15 K	1372.3	1.40142	–	35.9
328.15 K	1368	1.40006	–	30.2
333.1 K	–	–	31.5	–
333.15 K	1363.7	1.39877	–	25.7
338.15 K	1359.5	1.39747	–	22
343.15 K	1355.2	1.39616	–	19.1
348.15 K	1351	1.39486	–	16.7
353.15 K	1346.8	1.39358	–	14.7

CC[S+](C)CC.O=S(=O)([N-]S(=O)(=O)C(F)(F)F)C(F)(F)F [diethylmethylsulfonium bis[(trifluoromethyl)sulfonyl]imide]
Settings	mass density, [1] [kg/m3]	refractive index, [2]	surface tension liquid-gas, [1] [mN/m]	viscosity, [1] [mPa·s]
283.15 K	1517.3	1.42745	–	78.3
288.15 K	1512.2	1.42597	–	62.1
293.15 K	1507.2	1.42452	–	49.9
293.2 K	–	–	35.7	–
298.15 K	1502.3	1.42325	–	41.1
298.2 K	–	–	35.5	–
303.15 K	1497.3	1.42168	–	34.1
303.2 K	–	–	35.3	–
308.15 K	1492.4	1.42026	–	28.7
313.1 K	–	–	34.8	–
313.15 K	1487.6	1.41886	–	24.4
318.15 K	1482.8	1.41744	–	21
323.1 K	–	–	34.4	–
323.15 K	1478	1.41606	–	18.2
328.15 K	1473.2	1.41468	–	15.9
333.1 K	–	–	33.9	–
333.15 K	1468.5	1.41331	–	14
338.15 K	1463.8	1.41195	–	12.5
343.1 K	–	–	33.4	–
343.15 K	1459.1	1.41058	–	11.1
348.15 K	1454.5	1.40925	–	10
353.15 K	1449.8	1.40793	–	9

CC[S+](CC)CC.O=S(=O)([N-]S(=O)(=O)C(F)(F)F)C(F)(F)F [triethylsulfonium bis((trifluoromethyl)sulfonyl)imide]
Settings	mass density, [1] [kg/m3]	refractive index, [2]	surface tension liquid-gas, [1] [mN/m]	viscosity, [1] [mPa·s]
283.15 K	1477	1.43056	–	64.4
288.15 K	1472	1.42906	–	51.1
293.15 K	1467.1	1.42765	–	41.1
293.3 K	–	–	35.5	–
298.15 K	1462.1	1.42632	–	33.9
298.2 K	–	–	35.2	–
303.15 K	1457.3	1.42472	–	28.2
303.2 K	–	–	35	–
308.15 K	1452.4	1.42325	–	23.8
313.1 K	–	–	34.4	–
313.15 K	1447.6	1.42185	–	20.3
318.15 K	1442.8	1.42044	–	17.5
323 K	–	–	34	–
323.15 K	1438.1	1.41906	–	15.2
328.15 K	1433.4	1.41767	–	13.4
333.1 K	–	–	33.4	–
333.15 K	1428.7	1.41629	–	11.8
338.15 K	1424	1.4149	–	10.5
343.1 K	–	–	32.9	–
343.15 K	1419.4	1.41353	–	9.4
348.15 K	1414.8	1.41215	–	8.5
353.15 K	1410.2	1.41077	–	7.7

— the NIST ThermoML archive (doi:10.1016/j.fluid.2014.08.005)
